In brackets after ≈: the same amount, converted by molar mass.
Legend:
Assay type in all cases: cell-based
Ref 6 S. aureus = experiment: MIC by microdilution in broth, reference strain Ref 6; set-up: key to Phenotype (R = resistant, S = sensitive): RA signifies resistance to amoxicillin; RC signifies resistance to ceftriaxone; RM signifies resistance to meropenem; RO resistance to oxacillin; SA signifies sensitive to amoxicillin; SC signifies sensitive to ceftriaxone; SM signifies sensitive to meropenem; SO sensitive to oxacillin
Description: (§1) The minimum inhibitory concentration (MIC in μg/ml) was determined by microdilution in broth, a technique very widely used by a person skilled in the art.

Ref 7 S. aureus = experiment: MIC by microdilution in broth, reference strain Ref 7; set-up: key to Phenotype (R = resistant, S = sensitive): RA signifies resistance to amoxicillin; RC signifies resistance to ceftriaxone; RM signifies resistance to meropenem; RO resistance to oxacillin; SA signifies sensitive to amoxicillin; SC signifies sensitive to ceftriaxone; SM signifies sensitive to meropenem; SO sensitive to oxacillin; settings: mecA
Description: as §1

[1] = tested on: Isolate 10 (Staphylococcus aureus); experiment: Resistance characterization on functionalized analysis plate, MALDI-TOF (Example 4); settings: isolate 10 (S. aureus); oxacillin 2 μg/ml; threshold identification probability ≥90% for at least 3 deposits out of 4
Description: (§2) This cassette comprises a gasket so as to be able to dispose the analysis plate on a sponge impregnated to saturation with Muller-Hinton culture medium. The sponge impregnated with a culture medium serves as a support, and it is made of porous material as described in the description.
(§3) A cover was placed on the cassette containing the analysis plate so as to be clipped on the cassette and close the device without touching the top of the drops.
(§4) The analysis cassettes thus prepared were incubated in the stove at 37° C. for 2, 3, 4 or 5 hours.
(§5) At the end of the incubation step, the analysis plates are placed on very absorbent, dry blotting paper, with an absorption capacity of 25 μL·cm^−2, so that the drops present on the analysis plate are aspirated by capillarity through the analysis zones made of porous material.
(§6) 1 μl of HCCA matrix, alpha-cyano 4-hydroxycinnamic acid (VITEK®MS-CHCA, bioMérieux reference 411071) was deposited on the analysis zones, comprising the microorganisms and the antimicrobial agent, and on the calibration zones comprising the calibrant.
(§7) The analysis plate is then dried and analyzed by VITEK®MS as described in example 1.
(§8) The isolates identified in example 1 were diluted to 0.5 McFarland (McF) in Muller-Hinton medium (bioMérieux reference AEB 110699), then diluted again to 1/100° for the Gram-negative bacteria and to 1/10° for the Gram-positive bacteria, always in Muller-Hinton medium.
(§9) Drops of 2 μl of the final dilutions were deposited on the analysis zones of the analysis plates according to the invention as described in example 2. As before, the dilutions of E. coli and of K. pneumoniae were analyzed on the targets with 16 deposits of amoxicillin, 16 deposits of ceftriaxone and 16 deposits of meropenem. The dilutions of Staphylococci were analyzed on the targets with 2 μg/ml of oxacillin.
(§10) When no sample deposit was provided on an analysis zone, this zone is covered with a Parafilm M plastic film (Bemis North America) before putting the analysis plate in the cassette. In this way, the analysis zone was not brought into contact with the culture medium contained in the sponge impregnated to saturation. The positions unused in the first analysis thus remained usable for a subsequent analysis.
(§11) The analysis was carried out according to the same procedure as in example 3 with an incubation of 4 h for all the microorganisms. Moreover, the results were interpreted as in example 3, i.e. with a threshold of identification probability greater than or equal to 90% for at least 3 deposits out of 4.

[2] = tested on: Isolate 11 (Staphylococcus aureus); experiment: as above; settings: isolate 11 (S. aureus); oxacillin 2 μg/ml; threshold identification probability ≥90% for at least 3 deposits out of 4
Description: as §2, §3, §4, §5, §6, §7, §8, §9, §10, §11

[3] = tested on: Isolate 12 (Staphylococcus epidermidis); experiment: as above; settings: isolate 12 (S. epidermidis); oxacillin 2 μg/ml; threshold identification probability ≥90% for at least 3 deposits out of 4
Description: as §2, §3, §4, §5, §6, §7, §8, §9, §10, §11

[4] = tested on: Isolate 9 (Staphylococcus aureus); experiment: as above; settings: isolate 9 (S. aureus); oxacillin 2 μg/ml; threshold identification probability ≥90% for at least 3 deposits out of 4
Description: as §2, §3, §4, §5, §6, §7, §8, §9, §10, §11

[5] = tested on: Isolate 10 (Staphylococcus aureus); experiment: MIC determination on analysis plate with oxacillin concentration range, MALDI-TOF (Example 5); settings: read-out: MIC by the method of the invention
Description: as §4, §5, §6, §7
(§12) The dilutions of Staphylococci of the reference strains and of the isolates were analyzed on the analysis plates according to the invention with 4 deposits of oxacillin at 0.125 μg/ml, 4 deposits of oxacillin at 0.25 μg/ml, 4 deposits of oxacillin at 0.5 μg/ml, 4 deposits of oxacillin at 1 μg/ml, 4 deposits of oxacillin at 2 μg/ml, 4 deposits of oxacillin at 4 μg/ml, 4 deposits of oxacillin at 8 μg/ml, 4 deposits of oxacillin at 16 μg/ml, 4 deposits of oxacillin at 32 μg/ml, 4 deposits of oxacillin at 64 μg/ml, 4 deposits of oxacillin at 128 μg/ml, 4 deposits of oxacillin at 256 μg/ml.

[6] = tested on: Isolate 11 (Staphylococcus aureus); experiment: as above; settings: read-out: MIC by the method of the invention
Description: as §4, §5, §6, §7, §12

[7] = tested on: Isolate 12 (Staphylococcus epidermidis); experiment: as above; settings: read-out: MIC by the method of the invention
Description: as §4, §5, §6, §7, §12

[8] = tested on: Isolate 9 (Staphylococcus aureus); experiment: as above; settings: read-out: MIC by the method of the invention
Description: as §4, §5, §6, §7, §12

[9] = tested on: Reference strain No. 6 (S. aureus); experiment: as above
Description: as §4, §5, §6, §7, §12

[10] = tested on: reference strain No. 7 (S. aureus); experiment: as above
Description: as §4, §5, §6, §7, §12

[11] = Staphylococcus aureus, microdilution in broth, read-out: Minimum inhibitory concentration (MIC in μg/ml)

Compound: Cc1onc(-c2ccccc2)c1C(=O)N[C@@H]1C(=O)N2[C@@H]1SC(C)(C)[C@@H]2C(=O)O [Oxacillin, oxacillin]
- Phenotype (R = resistant, S = sensitive) (Ref 6 S. aureus): SO
- MIC (Ref 6 S. aureus; [11]): 0.25 µg/mL (≈ 0.623 µM)
- MIC (Ref 7 S. aureus; [11]): 128 µg/mL (≈ 319 µM)
- Phenotype (R = resistant, S = sensitive) (Ref 7 S. aureus): RO
- Isolate characterized as resistant or sensitive to the antibiotic [1]: sensitive
- Isolate characterized as resistant or sensitive to the antibiotic [2]: sensitive
- Isolate characterized as resistant or sensitive to the antibiotic [3]: sensitive
- Isolate characterized as resistant or sensitive to the antibiotic [4]: resistant
- MIC [5]: 0.25 µg/mL (≈ 0.623 µM)
- MIC [6]: 0.5 µg/mL (≈ 1.25 µM)
- MIC [7]: 0.125 µg/mL (≈ 0.311 µM)
- MIC [8]: 16 µg/mL (≈ 39.9 µM)
- MIC ([9]; Staphylococcus aureus, equals Table 2 MIC, read-out: MIC, lowest growth inhibiting concentration observed by the method of the invention): 0.25 µg/mL (≈ 0.623 µM)
- Identification as S. aureus ([9]; higher concentrations of oxacillin (above 0.25 μg/ml)): not identified
- Identification probability as S. aureus ([9]; oxacillin 0.125 μg/ml, in 3 deposits out of 4): greater than 99.9%
- Identification probability as S. aureus ([9]; oxacillin 0.25 μg/ml, for 1 deposit out of 4): greater than 99.9%
- MIC ([10]; Staphylococcus aureus, compliant with Table 2, read-out: MIC by the method of the invention): 128 µg/mL (≈ 319 µM)
- Identification probability as S. aureus ([10]; oxacillin 0.125 at 64 μg/ml): 99.9%
- Identification as S. aureus ([10]; oxacillin 128 and 256 μg/ml): not identified
